Data from patent US20210369699A1, “TREATMENT OF LUPUS ERYTHEMATOSUS USING S-HYDROXYCHLOROQUINE” (Genovate Biotechnology Co. Ltd., priority 2020, published 2021).
Read-outs that look alike come from different tables or passages of the source.

Columns and labels:
[1] = molecular target: T1, human ether-a-go-go-related gene (hERG) voltage-gated potassium channel (Homo sapiens, UniProt Q12809); experiment: In vitro cardiotoxicity assay: hERG patch-clamp in HEK-293 cells
Protocol: (§3) A conventional patch-clamp technique was used to determine inhibitory effects on hERG. Human embryonic kidney cells (HEK-293) stably transfected with human hERG cDNA were plated on collagen-coated 35-mm cell culture dishes at low density for 1-7 days. For single-cell patch-clamp recording, the intracellular solution contained 130 mM KCl, 10 mM NaCl, 1 mM MgCl2, 10 mM EGTA, 5 mM MgATP, and 10 mM HEPES (pH adjusted to 7.2 with KOH). The extracellular solution contained acellular Solution (mM): 137 mM NaCl, 4 mM KCl, 1.8 mM CaCl2, 1 mM MgCl2, 10 mM D(+)-Glucose, and 10 mM HEPES (pH adjusted to 7.4 with NaOH). All measurements were performed at room temperature.
(§4) After cell capture, a pulse protocol was implemented that involved stepping from a holding potential of −80 mV to +40 mV for 4 s to inactivate hERG channels. The membrane voltage was then stepped back to −50 mV for 4 s to evoke a tail current prior to returning to the holding potential. This sequence was repeated with an inter-pulse interval of 20 s. […] Evoked peak tail current amplitudes were continuously monitored throughout the experiment. Each compound was applied from low to high concentrations sequentially to the same cell for five minutes.
(§5) The percent inhibition of hERG channel was calculated by comparing the tail current amplitude before and after application of the compound, the current difference being normalized to control. The amplitude of the hERG peak tail current was calculated by measuring the tail current on stepping to −50 mV. The current was measured before and after each compound addition. […] Percent inhibition values were used to calculate the IC50 for each tested compound.

[2] = Body weight of treated MRL/lpr mice
Protocol: Pharmacodynamics of HCQ, S-HCQ, and R-HCQ was examined in MRL/lpr mice, a model for human cutaneous lupus erythematosus. […] Eight-week old MRL/lpr mice, were purchased from Jackson Laboratory (ME, USA) and maintained on a 12 h light and dark cycle with constant temperature and humidity control. Animals were given water and food ad-libitum.
Groups of 14-15 mice were treated starting at the age of −15 weeks old with vehicle (10% EtOH in PBS), with low dose (20 mg/kg) or high dose (40 mg/kg) HCQ, S-HCQ, or R-HCQ. Mice in the vehicle and low dose groups were treated orally once daily for 16 weeks from age 15 to 31 weeks. Mice in the high dose groups were treated orally once daily for 14 weeks from age 15 to 29 weeks. Dosing volumes were kept consistent at 10 mL/kg.
MRL/lpr mice treated with vehicle or with 20 mg/kg HCQ, S-HCQ, or R-HCQ were weighed once per week from day 0 (initial day of dosing) to day 111. Animals in the 40 mg/kg groups were weighed daily from day 0 to day 90.

MRL/lpr mice [3] = experiment: Blood urea nitrogen and creatinine concentration in plasma of MRL/lpr mice; type: in vivo; conditions: end of study; for creatinine concentration in plasma: FIG. 4B
Protocol: (§1) See Furukawa et al., 1996, J. Invest. Dermatol. 107; 95-100; Furukawa et al., 2009, Autoimmun. Rev. 8:495-499; and Shimomatsu et al., 2016, Mod. Rheumatol. 26:744-748. […] Animals were given water and food ad-libitum.
(§2) Dosing volumes were kept consistent at 10 mL/kg.
Plasma was prepared from blood samples collected at the end of the study. They were analyzed for blood urea nitrogen (BUN) level and creatinine concentration using a FUJI DRI-CHEM 4000i instrument as directed by the manufacturer. Elevated BUN and creatinine levels indicate compromised kidney function.

[4] = system: IL-17 production in human peripheral blood mononuclear cells (PBMC); experiment: IL-17 production in PMA/ionomycin-stimulated PBMC (ELISA); type: cell-based; conditions: for IL-17 pg/mL (mean ± SD): n = 3; for inhibition at 25 µM / inhibition at 50 µM / inhibition at 100 µM / inhibition at 5 µM: PBMC; for inhibition at 25 µM / inhibition at 50 µM / inhibition at 100 µM / (%) inhibition / inhibition at 5 µM: IL-17 synthesis
Protocol: Hydroxychloroquine (HCQ) and its pure optical isomers S-hydroxychloroquine (S-HCQ; enantiomeric excess of 99.0%) and R-hydroxychloroquine (R-HCQ; enantiomeric excess of 98.3%) were tested in an in vitro pharmacodynamic assay to determine their efficacy at inhibiting interleukin 17 (IL-17) production in human peripheral blood mononuclear cells (PBMC) stimulated with phorbol myristate acetate (PMA) and ionomycin.
Cells were cultured at 37° C. with 5% CO2 in RPMI-1640 medium (Gibco, 11875-093) supplemented with 10% Fetal Bovine Serum (Gibco, 10437-028), 10 mM HEPES (Gibco, 15630-080), and 100 U/mL Penicillin/Streptomycin (Gibco, 15140-122).
PBMC were seeded at a density of 10^6 cells/ml in each well of a 96-well round bottom microplate (Corning, 7007) then stimulated with 25 ng/ml PMA and 1 μg/ml ionomycin in the absence and presence of 25 μM, 50 μM, or 100 μM HCQ, S-HCQ or R-HCQ each dissolved in ethanol. The final concentration of ethanol in the culture medium was 0.75%. PBMC treated with 5 μM methylprednisolone served as a positive control.
After incubation for 48 or 72 hours, the cell culture supernatants were collected and stored at −80° C. until analysis. The levels of IL-17 induced by PMA/ionomycin-stimulated PBMC were analyzed using human IL-17 Quantikine ELISA Kit (R & D system, D1700) according to product information.

[5] = molecular target: T1, human ether-a-go-go-related gene (hERG) voltage-gated potassium channel
Protocol: as §3, §4, §5

MRL/lpr mice [6] = experiment: Skin lesions in treated MRL/lpr mice; type: in vivo; conditions: for mean score of skin lesions versus time (onset of skin inflammation and lesions): HCQ and R-HCQ, FIG. 3A
Protocol: as §1, §2
Inflammation and skin lesions in the MRL/lpr mice were scored twice per week from the regions of dorsal neck, forehead, snout, and ears using a previously described scoring scale. See Keil et al., 2016, Arthritis Res. Ther. 18:243. Briefly, animals with no skin lesions were scored as 0, those having minimal hair loss with redness and a few scattered lesions were scored as 1, and those with redness, scabbing, and hair loss with a small area of involvement were scored as 2.
The mean score of skin lesions in each group from Day 68 to Day 111 for vehicle and low dose groups and from Day 68 to Day 90 for high dose groups after first dosing were plotted and are shown in FIG. 3A.
The data was reanalyzed by comparing the average skin lesion scores for each treatment over the entire test period. The skin lesion scores from day 68 to day 111 after initial dosing were averaged for the vehicle and the low dose groups and compared, as shown in FIG. 3B. The skin lesion scores from day 68 to day 90 after initial dosing were averaged for the vehicle and the high dose groups and compared, as shown in FIG. 3C.

MRL/lpr mice [7] = experiment: Survival of treated MRL/lpr mice; type: in vivo; conditions: observed 70-80 days
Protocol: as §1, §2
The number of live and dead mice was recorded each day beginning from the first dosing day at age 15 weeks.

[8] = 25 μM, 48 h, PMA/ionomycin-stimulated PBMC
[9] = 25 μM, 72 h, PMA/ionomycin-stimulated PBMC
[10] = 50 μM, 48 h, PMA/ionomycin-stimulated PBMC
[11] = 50 μM, 72 h, PMA/ionomycin-stimulated PBMC
[12] = 100 μM, 48 h, PMA/ionomycin-stimulated PBMC
[13] = 100 μM, 72 h, PMA/ionomycin-stimulated PBMC

T1 sequence (Q12809 whole entry): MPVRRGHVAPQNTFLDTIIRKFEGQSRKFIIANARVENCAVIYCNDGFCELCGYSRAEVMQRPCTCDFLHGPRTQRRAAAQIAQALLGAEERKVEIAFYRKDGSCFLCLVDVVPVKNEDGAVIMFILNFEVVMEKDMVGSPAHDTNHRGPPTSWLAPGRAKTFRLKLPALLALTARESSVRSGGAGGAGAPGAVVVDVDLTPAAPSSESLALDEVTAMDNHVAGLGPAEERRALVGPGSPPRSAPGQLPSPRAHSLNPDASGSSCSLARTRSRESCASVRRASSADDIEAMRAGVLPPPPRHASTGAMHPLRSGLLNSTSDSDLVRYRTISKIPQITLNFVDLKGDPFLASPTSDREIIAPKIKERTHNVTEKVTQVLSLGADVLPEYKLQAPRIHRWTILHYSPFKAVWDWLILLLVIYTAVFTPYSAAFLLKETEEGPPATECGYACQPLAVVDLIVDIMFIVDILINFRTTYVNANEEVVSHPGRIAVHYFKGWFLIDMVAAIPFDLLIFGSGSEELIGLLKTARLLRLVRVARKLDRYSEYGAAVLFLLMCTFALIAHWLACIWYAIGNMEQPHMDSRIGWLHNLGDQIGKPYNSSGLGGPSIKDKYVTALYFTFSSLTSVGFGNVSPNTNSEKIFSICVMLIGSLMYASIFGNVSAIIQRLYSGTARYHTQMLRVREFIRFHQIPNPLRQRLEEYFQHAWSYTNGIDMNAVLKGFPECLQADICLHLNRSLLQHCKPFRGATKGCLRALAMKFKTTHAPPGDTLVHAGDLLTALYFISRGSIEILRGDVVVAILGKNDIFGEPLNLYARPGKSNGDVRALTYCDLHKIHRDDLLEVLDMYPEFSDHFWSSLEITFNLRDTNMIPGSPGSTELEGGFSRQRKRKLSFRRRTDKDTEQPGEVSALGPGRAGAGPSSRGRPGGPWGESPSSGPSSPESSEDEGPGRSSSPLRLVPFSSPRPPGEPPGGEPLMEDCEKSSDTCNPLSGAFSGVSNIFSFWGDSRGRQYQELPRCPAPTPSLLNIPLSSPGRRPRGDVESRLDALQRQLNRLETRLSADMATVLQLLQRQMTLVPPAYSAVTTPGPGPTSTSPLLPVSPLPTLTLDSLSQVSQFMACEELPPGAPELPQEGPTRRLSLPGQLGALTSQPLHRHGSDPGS

Compound | creatinine concentration in plasma (MRL/lpr mice [3]; 20 mg/kg orally once daily) | IL-17 pg/mL (mean ± SD) [4, 8] | IL-17 pg/mL (mean ± SD) [4, 9] | IL-17 pg/mL (mean ± SD) [4, 10] | IL-17 pg/mL (mean ± SD) [4, 11] | IL-17 pg/mL (mean ± SD) [4, 12] | IL-17 pg/mL (mean ± SD) [4, 13] | creatinine concentration in plasma (MRL/lpr mice [3]; 40 mg/kg orally once daily) | IC50 [5] | (%) inhibition ([4]; 25 μM, 48 h) | (%) inhibition ([4]; 25 μM, 72 h) | (%) inhibition ([4]; 50 μM, 48 h) | (%) inhibition ([4]; 50 μM, 72 h) | (%) inhibition ([4]; 100 μM, 48 h) | (%) inhibition ([4]; 100 μM, 72 h) | further results
CCN(CCO)CCCC(C)Nc1ccnc2cc(Cl)ccc12 (racemic) [HCQ, Hydroxychloroquine] | lower | 480.4 ± 13.1 pg/mL | 502.4 ± 20.7 pg/mL | 344.8 ± 12.2 pg/mL | 341.1 ± 47.4 pg/mL | 214.5 ± 15.3 pg/mL | 203.0 ± 10.8 pg/mL |  |  |  |  |  |  |  |  | IC50 [1]: 4.84 µM; mean body weight vs vehicle ([2]; 20 mg/kg orally once daily, day 0 to day 111, FIG. 1A): No obvious difference in mean body weight; mean body weight vs vehicle ([2]; 40 mg/kg orally once daily, day 0 to day 90, FIG. 1B): No obvious difference in mean body weight; inhibition at 25 µM ([4]; Homo sapiens, 25 μM, 48 h): 3%; inhibition at 25 µM ([4]; Homo sapiens, 25 μM, 72 h): 23%; inhibition at 50 µM ([4]; Homo sapiens, 50 μM, 48 h): 30%; inhibition at 50 µM ([4]; Homo sapiens, 50 μM, 72 h): 48%; inhibition at 100 µM ([4]; Homo sapiens, 100 μM, 48 h): 57%; inhibition at 100 µM ([4]; Homo sapiens, 100 μM, 72 h): 69%; IC50 ([4]; Homo sapiens, PMA/ionomycin-stimulated PBMC, 48 h or 72 h, read-out: absolute IC50 of IL-17 inhibition): 50 to 100 µM
CCN(CCO)CCCC(C)Nc1ccnc2cc(Cl)ccc12 (stereo not drawn) [R-HCQ, R-hydroxychloroquine] | lower | 471.6 ± 32.9 pg/mL | 564.0 ± 72.9 pg/mL | 289.4 ± 34.7 pg/mL | 326.8 ± 33.6 pg/mL | 154.0 ± 18.1 pg/mL | 179.2 ± 31.8 pg/mL | lower | 4.2 µM | 5% | 13% | 42% | 50% | 69% | 72% | 
CCN(CCO)CCC[C@H](C)Nc1ccnc2cc(Cl)ccc12 [S-HCQ, S-hydroxychloroquine] |  | 432.6 ± 28.9 pg/mL | 486.5 ± 8.9 pg/mL | 292.0 ± 21.6 pg/mL | 354.6 ± 52.5 pg/mL | 215.0 ± 24.6 pg/mL | 248.9 ± 38.9 pg/mL | most significant decrease in creatinine concentration | 11 µM | 13% | 25% | 41% | 45% | 57% | 62% | average skin lesion score over the test period vs vehicle (MRL/lpr mice [6]; 20 mg/kg (low dose), day 68 to day 111, t-test p<0.005, FIG. 3B): significantly reduced skin lesion scores; mean score of skin lesions versus time (onset of skin inflammation and lesions) (MRL/lpr mice [6]; 20 mg/kg orally once daily, Day 68 to Day 111, compared to vehicle): superior in reducing the onset of skin inflammation and lesions; average skin lesion score over the test period vs vehicle (MRL/lpr mice [6]; 40 mg/kg (high dose), day 68 to day 90, t-test p<0.005, FIG. 3C): significantly reduced skin lesion scores; mean score of skin lesions versus time (onset of skin inflammation and lesions) (MRL/lpr mice [6]; 40 mg/kg orally once daily, Day 68 to Day 90, compared to vehicle): superior in reducing the onset of skin inflammation and lesions; blood urea nitrogen (BUN) level in plasma (MRL/lpr mice [3]; 40 mg/kg orally once daily, compared to any other treatments, FIG. 4A): significantly lower; fractional survival compared to vehicle, HCQ and R-HCQ (MRL/lpr mice [7]; 20 mg/kg orally once daily, FIG. 2A): higher fractional survival; fractional survival compared to vehicle, HCQ and R-HCQ (MRL/lpr mice [7]; 40 mg/kg orally once daily, FIG. 2B): higher fractional survival
C[C@H]1C[C@@H]2[C@H]([C@@H](O)C[C@@]3(C)[C@H]2CC[C@]3(O)C(=O)CO)[C@@]2(C)C=CC(=O)C=C12 [methylprednisolone] |  |  |  |  |  |  |  |  |  |  |  |  |  |  |  | IL-17 pg/mL (mean ± SD) ([4]; 5 μM, 48 h, PMA/ionomycin-stimulated PBMC): 266.7 ± 15.3 pg/mL; IL-17 pg/mL (mean ± SD) ([4]; 5 μM, 72 h, PMA/ionomycin-stimulated PBMC): 282.0 ± 37.6 pg/mL; inhibition at 5 µM ([4]; Homo sapiens, 5 μM, 48 h): 46%; inhibition at 5 µM ([4]; Homo sapiens, 5 μM, 72 h): 57%
